Data taken from PubChem BioAssay (NCI).
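In this assay, cells in 96-well plates receive the compound at five concentrations for 48 hours. Endpoints are linearly interpolated between the surrounding concentrations. Abbreviation: GI50, concentration required for 50% inhibition of growth. TGI denotes the concentration required for complete inhibition of growth.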

What was measured:
Test in all cases: growth of human tumour cells (NCI), 48 h; in the data active means GI50 below about 0.43 µM; inactive means the rest
HCC-2998 colon = tested on: HCC-2998 colon
UACC-257 melanoma = tested on: UACC-257 melanoma
SK-MEL-28 melanoma = tested on: SK-MEL-28 melanoma
EKVX NSCLC = tested on: EKVX NSCLC
HL-60(TB) leukemia = tested on: HL-60(TB) leukemia
NCI-H226 lung = tested on: NCI-H226 lung
M14 melanoma = tested on: M14 melanoma
SNB-75 CNS = tested on: SNB-75 CNS
SF-539 CNS = tested on: SF-539 CNS
BT-549 breast = tested on: BT-549 breast

COC(=O)C1C(OCc2ccccc2)C2CCC1(OC)C=C2C (configuration not stated)
29.8 µM: TGI (HL-60(TB) leukemia)
> 100 µM: TGI (HCC-2998 colon) | TGI (UACC-257 melanoma) | TGI (SK-MEL-28 melanoma) | TGI (EKVX NSCLC) | TGI (NCI-H226 lung) | TGI (M14 melanoma) | TGI (SNB-75 CNS) | TGI (SF-539 CNS)

OCc1ccc(N(CCN2CCCC2)Cc2ccc(F)cc2)cc1Cl
86.8 µM: TGI (BT-549 breast)
inactive: GI50 (HCC-2998 colon) 10.7 µM | GI50 (UACC-257 melanoma) 14.7 µM | GI50 (SK-MEL-28 melanoma) 15.9 µM | GI50 (HL-60(TB) leukemia) 25.1 µM | GI50 (NCI-H226 lung) 1.39 µM | GI50 (M14 melanoma) 14.3 µM | GI50 (SNB-75 CNS) 12.5 µM | GI50 (SF-539 CNS) 16.4 µM | GI50 (BT-549 breast) 24.8 µM
64.8 µM: TGI (HL-60(TB) leukemia)
30.2 µM: TGI (SK-MEL-28 melanoma)
31.2 µM: TGI (SF-539 CNS)
3.85 µM: TGI (NCI-H226 lung)
35.3 µM: TGI (SNB-75 CNS)
29 µM: TGI (UACC-257 melanoma)
30.9 µM: TGI (M14 melanoma)
23.8 µM: TGI (HCC-2998 colon)

O=C(c1ccc(Cl)cc1)c1ccc(OCCSCCCCCCCCCCSCCOc2ccc(C(=O)c3ccc(Cl)cc3)cc2)cc1
> 100 µM: TGI (HCC-2998 colon) | TGI (UACC-257 melanoma) | TGI (SK-MEL-28 melanoma) | TGI (EKVX NSCLC) | TGI (HL-60(TB) leukemia) | TGI (NCI-H226 lung) | TGI (SNB-75 CNS)

C1=Nc2ccccc2C=Nc2ccccc2C=Nc2ccccc2C=Nc2ccccc21.[Cl-].[Pt+2]
> 100 µM: TGI (EKVX NSCLC) | TGI (M14 melanoma)
54.1 µM: TGI (SF-539 CNS)
inactive: GI50 (SK-MEL-28 melanoma) 14.8 µM | GI50 (EKVX NSCLC) 37.5 µM | GI50 (HL-60(TB) leukemia) 3.95 µM | GI50 (M14 melanoma) 30.2 µM | GI50 (SF-539 CNS) 23.1 µM
22.4 µM: TGI (HL-60(TB) leukemia)
64.4 µM: TGI (SK-MEL-28 melanoma)

COc1cc(Nc2nc3ccc(C(F)(F)F)cc3nc2-c2ccccc2)cc(OC)c1OC
85 µM: TGI (UACC-257 melanoma)
> 100 µM: TGI (SK-MEL-28 melanoma) | TGI (M14 melanoma) | TGI (SNB-75 CNS) | TGI (SF-539 CNS)
25.9 µM: TGI (HCC-2998 colon)
79.7 µM: TGI (EKVX NSCLC)
65.6 µM: TGI (NCI-H226 lung)

COc1cc2c(cn1)[nH]c1ccccc12
> 100 µM: TGI (HCC-2998 colon) | TGI (UACC-257 melanoma) | TGI (SK-MEL-28 melanoma) | TGI (EKVX NSCLC) | TGI (HL-60(TB) leukemia) | TGI (NCI-H226 lung) | TGI (M14 melanoma) | TGI (SNB-75 CNS) | TGI (SF-539 CNS)

COc1ccc(-c2csc(NC(=O)c3cc(O)c(O)c(O)c3)n2)cc1
> 33.3 µM: TGI (HCC-2998 colon) | TGI (UACC-257 melanoma) | TGI (SK-MEL-28 melanoma) | TGI (NCI-H226 lung) | TGI (M14 melanoma) | TGI (SNB-75 CNS) | TGI (SF-539 CNS) | TGI (BT-549 breast)
inactive: GI50 (HCC-2998 colon) 17.2 µM | GI50 (UACC-257 melanoma) 11.9 µM | GI50 (SK-MEL-28 melanoma) 13.2 µM | GI50 (HL-60(TB) leukemia) 8.28 µM | GI50 (NCI-H226 lung) 9.59 µM | GI50 (M14 melanoma) 10.4 µM | GI50 (SNB-75 CNS) 6.32 µM | GI50 (SF-539 CNS) 7.64 µM | GI50 (BT-549 breast) 10.9 µM
23.9 µM: TGI (HL-60(TB) leukemia)

CCCN(CCSSCCNc1nc(N(C)O)nc(N(C)O)n1)c1nc(N(C)O)nc(N(C)O)n1
inactive: GI50 (HCC-2998 colon) 4.73 µM | GI50 (UACC-257 melanoma) 22.7 µM | GI50 (SK-MEL-28 melanoma) 6.99 µM | GI50 (HL-60(TB) leukemia) 3.31 µM | GI50 (NCI-H226 lung) 7.76 µM | GI50 (M14 melanoma) 5.68 µM | GI50 (SNB-75 CNS) 24.4 µM | GI50 (SF-539 CNS) 4.05 µM | GI50 (BT-549 breast) 7.6 µM
> 100 µM: TGI (HCC-2998 colon) | TGI (UACC-257 melanoma) | TGI (SK-MEL-28 melanoma) | TGI (HL-60(TB) leukemia) | TGI (NCI-H226 lung) | TGI (M14 melanoma) | TGI (SNB-75 CNS) | TGI (SF-539 CNS) | TGI (BT-549 breast)
